According to ChEMBL document CHEMBL4177537, “Identification of a new class of potent Cdc7 inhibitors designed by putative pharmacophore model: Synthesis and biological evaluation of 2,3-dihydrothieno[3,2-d]pyrimidin-4(1H)-ones” (Bioorg Med Chem, 2017):

Legend:
[1] = target: CDC7/DBF4 (Cell division cycle 7-related protein kinase/Activator of S phase kinase) (Homo sapiens, UniProt O00311); assay: Inhibition of recombinant human Cdc7 (1 to 574 residues)/human N-terminal GST-tagged DBF4 (1 to 674 residues) expressed in baculovirus expression system using His-tagged MCM2 as substrate preincubated for 10 mins followed by ATP addition by HTRF assay
[2] = target: Cyclin-dependent kinase 2/cyclin E1 (Homo sapiens, UniProt P24941); assay: Inhibition of recombinant human Cdk2 (1 to 298 residues)/human N-terminal GST-tagged cyclinE (1 to 410 residues) expressed in baculovirus expression system using histone H1 as substrate after 90 mins in presence of ATP by kinase-glo assay
[3] = target: Rho-associated protein kinase 1 (Homo sapiens, UniProt Q13464); assay: Inhibition of recombinant human N-terminal GST-tagged ROCK1 (1 to 477 residues) expressed in baculovirus expression system using biotin-STK substrate-2 as substrate preincubated for 5 mins followed by ATP addition after 2 hrs by TR-FRET assay
[4] = target: Cell division cycle 7-related protein kinase (Homo sapiens, UniProt O00311); assay: Inhibition of Cdc7 in human HeLa cells assessed as reduction in MCM2 phosphorylation at ser40 residues after 7 hrs by Western blot analysis; format: cell-based
[5] = Solubility of the compound; format: physicochemical
COLO 205 = assay: Cytotoxicity against human COLO205 cells after 3 days by CellTiter-Glo luminescent cell viability assay; format: functional, cell-based; details: COLO 205, 72 h

IC50 [1] | IC50 [2] | IC50 [3] | IC50 [4] | solubility [5] | Compound | EC50 (COLO 205)
7.5 nM | 2000 nM | 36 nM | – | – | CCC1(C)NC(=O)c2sc(-c3ccncc3)cc2N1 (stereo not given) | –
14 nM | 26 nM | 44 nM | – | – | Cc1c(-c2cn[nH]c2)sc2c1N(C)C(C)(C)NC2=O | –
8.2 nM | 4900 nM | 100 nM | – | – | O=C1NC2(CCCC2)Nc2cc(-c3ccncc3)sc21 | –
3.6 nM | 2300 nM | 37 nM | – | – | O=C1NC2(CCCCCC2)Nc2cc(-c3ccncc3)sc21 | –
6.3 nM | 2000 nM | 33 nM | – | – | CCCC1(C)NC(=O)c2sc(-c3ccncc3)cc2N1 (stereo not given) | –
3 nM | 2000 nM | 53 nM | – | – | O=C1NC2(CCCCC2)Nc2cc(-c3ccncc3)sc21 | –
1.5 nM | 1300 nM | 48 nM | 290 nM | Soluble | Cc1n[nH]cc1-c1cc2c(s1)C(=O)NC1(CCCCC1)N2 | 470 nM
450 nM | > 10000 nM | 240 nM | – | – | CN1C(=O)c2sc(-c3ccncc3)cc2NC1(C)C | –
2.7 nM | 1200 nM | 31 nM | – | – | CC1(CC(F)(F)F)NC(=O)c2sc(-c3ccncc3)cc2N1 (stereo not given) | –
690 nM | – | – | – | – | O=c1[nH]c(=O)c2sc(-c3ccncc3)cc2[nH]1 | –
290 nM | 1100 nM | 2100 nM | – | – | Cc1n[nH]c(C)c1-c1cc2c(s1)C(=O)NC(C)(C)N2C | –
1 nM | 420 nM | 22 nM | 210 nM | Soluble | Cc1n[nH]cc1-c1cc2c(s1)C(=O)NC(C)(CC(F)(F)F)N2C (stereo not given) | 330 nM
26 nM | 3200 nM | 90 nM | – | – | CC1(C)NC(=O)c2sc(-c3ccncc3)cc2N1 | –
380 nM | > 10000 nM | 350 nM | – | – | Cc1n[nH]cc1-c1cc2c(s1)C(=O)N[C@]1(CC[C@@](O)(C3CCCCC3)CC1)N2 | –
9.5 nM | 26 nM | 22 nM | – | – | CN1c2c(sc(-c3cn[nH]c3)c2Br)C(=O)NC1(C)C | –
> 10000 nM | 650 nM | 1.5 nM | – | – | CC1(C)Nc2cc(-c3ccncc3)sc2C(=O)N1Cc1ccccc1 | –
8.2 nM | 1400 nM | 35 nM | – | – | CC(C)C1(C)NC(=O)c2sc(-c3ccncc3)cc2N1 (stereo not given) | –
1.2 nM | 960 nM | 820 nM | > 1000 nM | Soluble | Cc1n[nH]cc1-c1cc2c(s1)C(=O)N[C@]1(CC[C@](O)(c3ccc(F)cc3)CC1)N2 | 4500 nM
13 nM | 360 nM | 350 nM | – | – | CCc1n[nH]cc1-c1cc2c(s1)C(=O)NC(C)(C)N2C | –
170 nM | > 10000 nM | 130 nM | – | – | Cc1n[nH]cc1-c1cc2c(s1)C(=O)N[C@]1(CC[C@@](O)(c3ccc(F)cc3)CC1)N2 | –
1200 nM | – | – | – | – | NC(=O)c1sc(-c2ccncc2)cc1N | –
2 nM | 2200 nM | 2900 nM | > 1000 nM | Soluble | Cc1n[nH]cc1-c1cc2c(s1)C(=O)N[C@]1(CC[C@](O)(C3CCCCC3)CC1)N2 | 6200 nM
8.4 nM | 160 nM | 130 nM | – | – | CN1c2cc(-c3cn[nH]c3)sc2C(=O)NC1(C)C | –
2.9 nM | 260 nM | 54 nM | – | – | Cc1n[nH]cc1-c1cc2c(s1)C(=O)NC(C)(C)N2C | –
140 nM | – | 100 nM | – | – | CC1(C)NC(=O)c2cc(-c3ccncc3)sc2N1 | –
9.9 nM | 2100 nM | 140 nM | – | – | CN1c2cc(-c3ccncc3)sc2C(=O)NC1(C)C | –
